Test results: patent US20240158392A1 (Janssen Biotech, Inc., priority 2021, published 2024)

The molecules below were run against SIK2 (Homo sapiens, UniProt Q9H0K1) (assay: SIK2 Enzymatic Assay High Version 2 (High ATP)). Details: not given.
SIK2, sequence (Q9H0K1 whole entry, species assumed): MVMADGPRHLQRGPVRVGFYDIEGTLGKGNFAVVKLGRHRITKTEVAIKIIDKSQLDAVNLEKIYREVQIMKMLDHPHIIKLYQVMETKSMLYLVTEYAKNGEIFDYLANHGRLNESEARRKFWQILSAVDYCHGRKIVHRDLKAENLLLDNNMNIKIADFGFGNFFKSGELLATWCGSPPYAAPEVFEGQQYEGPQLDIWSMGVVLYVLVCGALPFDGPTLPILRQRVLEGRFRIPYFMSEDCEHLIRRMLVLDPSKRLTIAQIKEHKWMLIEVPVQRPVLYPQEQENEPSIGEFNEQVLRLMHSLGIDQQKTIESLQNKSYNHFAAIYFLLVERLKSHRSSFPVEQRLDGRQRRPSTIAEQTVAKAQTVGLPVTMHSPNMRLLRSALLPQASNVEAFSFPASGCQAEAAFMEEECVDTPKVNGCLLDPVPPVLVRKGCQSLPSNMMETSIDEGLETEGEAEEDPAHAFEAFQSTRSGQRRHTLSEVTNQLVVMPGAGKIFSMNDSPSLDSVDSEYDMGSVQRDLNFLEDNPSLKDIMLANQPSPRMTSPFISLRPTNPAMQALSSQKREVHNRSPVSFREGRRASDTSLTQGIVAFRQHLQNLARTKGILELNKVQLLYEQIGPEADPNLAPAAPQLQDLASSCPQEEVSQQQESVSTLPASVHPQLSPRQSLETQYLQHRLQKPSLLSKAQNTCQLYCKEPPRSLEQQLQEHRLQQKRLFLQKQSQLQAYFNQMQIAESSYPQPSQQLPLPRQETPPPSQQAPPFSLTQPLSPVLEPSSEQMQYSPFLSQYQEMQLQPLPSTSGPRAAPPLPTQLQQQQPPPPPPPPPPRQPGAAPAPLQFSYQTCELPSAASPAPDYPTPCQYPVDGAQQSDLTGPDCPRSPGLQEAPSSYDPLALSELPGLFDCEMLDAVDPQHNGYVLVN
Type: biochemical
Outline: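 At room temperature, enzyme (6 nM, 2× final) was preincubated with compound for 30 min, then 6 mM ATP and 400 μM HDAC5tide (both 2× final) were added for 2 h. ADP formed was measured by ADP-Glo Max (2 h reagent, 1 h detection) using luminescence.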
Cc1cc(-c2ccn3nc(NC(=O)C4CC4)cc3c2)c(OC[C@H]2NCC2(C)C)cn1 [Example 471, N-[5-[5-[[(2S)-3,3-dimethylazetidin-2-yl]methoxy]-2-methyl-4-pyridyl]pyrazolo[1,5-a]pyridin-2-yl]cyclopropanecarboxamide] gave an IC50 of 0.0277 µM. CNC(=O)c1ccnc(Nc2cc3cc(-c4cc(C)ncc4O[C@H]4C[C@H]5COC[C@@H](C4)N5C(C)=O)ccn3n2)c1 [Example 631, 2-((5-(5-(((1R,5S,7s)-9-acetyl-3-oxa-9-azabicyclo[3.3.1]nonan-7-yl)oxy)-2-methylpyridin-4-yl)pyrazolo[1,5-a]pyridin-2-yl)amino)-N-methylisonicotinamide] was tested, and the IC50 was 0.0771 µM. For Cc1cc(Nc2cc3cc(-c4cc(C(F)(F)F)ncc4OC[C@H]4CCN4C)ccn3n2)nc(C)n1 [Example 625, N-(2,6-dimethylpyrimidin-4-yl)-5-[5-[[(2R)-1-methylazetidin-2-yl]methoxy]-2-(trifluoromethyl)-4-pyridyl]pyrazolo[1,5-a]pyridin-2-amine], the IC50 was 0.73 µM. [2H]C([2H])([2H])N1CC[C@H]1COc1cnc(C)cc1-c1ccn2nc(NC(=O)C3CC3)cc2c1 [Example 575, N-[5-[2-methyl-5-[[(2S)-1-(trideuteriomethyl)azetidin-2-yl]methoxy]-4-pyridyl]pyrazolo[1,5-a]pyridin-2-yl]cyclopropanecarboxamide] was tested, and the IC50 was 0.0703 µM. With Cc1cc(-c2ccn3nc(Nc4cc(C)c(=O)n(C)n4)cc3c2)c(OC2C[C@H]3COC[C@@H](C2)N3)cn1 (stereo partly drawn) [Example 337, 2,4-dimethyl-6-[[5-[2-methyl-5-[[(1S,5R)-3-oxa-9-azabicyclo[3.3.1]nonan-7-yl]oxy]-4-pyridyl]pyrazolo[1,5-a]pyridin-2-yl]amino]pyridazin-3-one] the IC50 was 0.00148 µM. With Cc1cc(-c2ccn3nc(Nc4cnccn4)cc3c2)c(O[C@H]2C[C@H]3COC[C@@H](C2)N3)nn1 [Example 486, 5-[6-methyl-3-[[(1S,5R)-3-oxa-9-azabicyclo[3.3.1]nonan-7-yl]oxy]pyridazin-4-yl]-N-pyrazin-2-yl-pyrazolo[1,5-a]pyridin-2-amine] the IC50 was 0.0285 µM. In the case of COCCNC(=O)c1ccc(Nc2cc3cc(-c4cc(C)ncc4O[C@H]4C[C@H]5COC[C@@H](C4)N5)ccn3n2)nc1 [Example 387, N-(2-methoxyethyl)-6-[[5-[2-methyl-5-[[(1S,5R,7s)-3-oxa-9-azabicyclo[3.3.1]nonan-7-yl]oxy]-4-pyridyl]pyrazolo[1,5-a]pyridin-2-yl]amino]pyridine-3-carboxamide], the IC50 is reported as 0.001 µM. Cc1cc(-c2ccn3nc(Nc4cc(C(F)(F)F)ccn4)cc3c2)c(O[C@H]2C[C@H]3COC[C@@H](C2)N3C)cn1 [Example 413, 5-[2-methyl-5-[[(1R,5S,7s)-9-methyl-3-oxa-9-azabicyclo[3.3.1]nonan-7-yl]oxy]-4-pyridyl]-N-[4-(trifluoromethyl)-2-pyridyl]pyrazolo[1,5-a]pyridin-2-amine] was tested, and the IC50 was under 0.000847 µM.

Same assay, conditions: enzyme 6 nM, 6 mM ATP and 400 μM HDAC5tide (each 2× final concentration); 30 minutes pre-incubation, 2 hours; ADP-Glo Max luminescence; read-out: SIK2 high ATP IC50 (μM) (Test Example 2)
Molecule Cc1cc(-c2ccn3nc(Nc4cnccn4)cc3c2)c(OC[C@H]2CN(C)CCO2)cn1 [Example 611, 5-[2-methyl-5-[[(2R)-4-methylmorpholin-2-yl]methoxy]-4-pyridyl]-N-pyrazin-2-yl-pyrazolo[1,5-a]pyridin-2-amine] has an IC50 of 0.116 µM. With Cc1cc(-c2ccn3nc(Nc4cnn(C)c4)cc3c2)c(O[C@H]2CC[C@](C)(O)CC2)cn1 [Example 163, (1r,4r)-1-methyl-4-((6-methyl-4-(2-((1-methyl-1H-pyrazol-4-yl)amino)pyrazolo[1,5-a]pyridin-5-yl)pyridin-3-yl)oxy)cyclohexan-1-ol] the IC50 was 0.00795 µM. With Cc1cc(Nc2cc3cc(-c4cc(C(F)(F)F)ncc4OCC(C)(C)C#N)ccn3n2)nc(C)n1 [Example 494, 3-[[4-[2-[(2,6-dimethylpyrimidin-4-yl)amino]pyrazolo[1,5-a]pyridin-5-yl]-6-(trifluoromethyl)-3-pyridyl]oxy]-2,2-dimethyl-propanenitrile] the IC50 was 0.00254 µM. For Cc1cc(-c2ccn3nc(Nc4ccc(C)nn4)cc3c2)c(OC[C@]23C[C@H](CO2)N(C)C3)cn1 [Example 256, 5-[2-methyl-5-[[(1R,4R)-2-methyl-5-oxa-2-azabicyclo[2.2.1]heptan-4-yl]methoxy]-4-pyridyl]-N-(6-methylpyridazin-3-yl)pyrazolo[1,5-a]pyridin-2-amine], the IC50 was 0.0198 µM. Cc1cncc(Nc2cc3cc(-c4cc(OC(F)F)ncc4OCC(C)(C)C#N)ccn3n2)n1 [Example 683, 3-[[6-(difluoromethoxy)-4-[2-[(6-methylpyrazin-2-yl)amino]pyrazolo[1,5-a]pyridin-5-yl]-3-pyridyl]oxy]-2,2-dimethyl-propanenitrile] gave an IC50 of 0.000974 µM. In the case of Cc1cc(-c2ccn3nc(Nc4cc(C)nc(C)n4)cc3c2)c(OCC(C)(C)O)cn1 [Example 200, 1-[[4-[2-[(2,6-dimethylpyrimidin-4-yl)amino]pyrazolo[1,5-a]pyridin-5-yl]-6-methyl-3-pyridyl]oxy]-2-methyl-propan-2-ol], the IC50 is reported as 0.0445 µM. Cc1cc(-c2ccn3nc(Nc4cc(C)c(=O)n(CCOC(F)F)n4)cc3c2)c(O[C@H]2CC[C@H](O)CC2)cn1 [Example 283, 2-[2-(difluoromethoxy)ethyl]-6-[[5-[5-(4-hydroxycyclohexoxy)-2-methyl-4-pyridyl]pyrazolo[1,5-a]pyridin-2-yl]amino]-4-methyl-pyridazin-3-one] was tested, and the IC50 was 0.00429 µM. Cc1cc(Nc2cc3cc(-c4cc(OCC(F)(F)F)ncc4OCC(C)(C)C#N)ccn3n2)nc(C)n1 [Example 659, 3-[[4-[2-[(2,6-dimethylpyrimidin-4-yl)amino]pyrazolo[1,5-a]pyridin-5-yl]-6-(2,2,2-trifluoroethoxy)-3-pyridyl]oxy]-2,2-dimethyl-propanenitrile] showed an IC50 of 0.157 µM. With Cc1cc(-c2ccn3nc(Nc4cc(C)nc(C)n4)cc3c2)c(OCC(O)(C(F)(F)F)C(F)(F)F)cn1 [Example 259, 2-[[4-[2-[(2,6-dimethylpyrimidin-4-yl)amino]pyrazolo[1,5-a]pyridin-5-yl]-6-methyl-3-pyridyl]oxymethyl]-1,1,1,3,3,3-hexafluoro-propan-2-ol] the IC50 was 0.0153 µM. With CO[C@]1(COc2cnc(C)cc2-c2ccn3nc(NC(=O)C4CC4)cc3c2)CCNC1 (single isomer, unassigned) [Example 214, (*R)—N-[5-[5-[(3-methoxypyrrolidin-3-yl)methoxy]-2-methyl-4-pyridyl]pyrazolo[1,5-a]pyridin-2-yl]cyclopropanecarboxamide] the IC50 was 0.0324 µM. For Cc1cc(-c2ccn3nc(Nc4cc(C)nc(C)n4)cc3c2)c(OCC2(C#N)CC2)cn1 [Example 560, 1-[[4-[2-[(2,6-dimethylpyrimidin-4-yl)amino]pyrazolo[1,5-a]pyridin-5-yl]-6-methyl-3-pyridyl]oxymethyl]cyclopropanecarbonitrile], the IC50 was 0.0616 µM. With Cc1cc(Nc2cc3cc(-c4cc(C)ncc4OCC(C)(C)O)ccn3n2)nc(C(=O)N(C)C)c1 [Example 244, 6-[[5-[5-(2-hydroxy-2-methyl-propoxy)-2-methyl-4-pyridyl]pyrazolo[1,5-a]pyridin-2-yl]amino]-N,N,4-trimethyl-pyridine-2-carboxamide] the IC50 was 0.0218 µM. In the case of CC(C)(C#N)COc1cnc(OC(F)F)cc1-c1ccn2nc(Nc3cnccn3)cc2c1 [Example 707, 3-[[6-(difluoromethoxy)-4-[2-(pyrazin-2-ylamino)pyrazolo[1,5-a]pyridin-5-yl]-3-pyridyl]oxy]-2,2-dimethyl-propanenitrile], the IC50 is reported as 0.0056 µM. Cc1cc(-c2ccn3nc(Nc4cc(C)nc(C)n4)cc3c2)c(OCC2CC(=O)N(C)C2)cn1 (racemic) [Example 542, (rac-)-4-[[4-[2-[(2,6-dimethylpyrimidin-4-yl)amino]pyrazolo[1,5-a]pyridin-5-yl]-6-methyl-3-pyridyl]oxymethyl]-1-methyl-pyrrolidin-2-one] showed an IC50 of 0.0425 µM. For CNc1nc(C)cc(Nc2cc3cc(-c4cc(Cl)ncc4OCC(C)(C)C#N)ccn3n2)n1 [Example 675, 3-[[6-chloro-4-[2-[[6-methyl-2-(methylamino)pyrimidin-4-yl]amino]pyrazolo[1,5-a]pyridin-5-yl]-3-pyridyl]oxy]-2,2-dimethyl-propanenitrile], the IC50 was 0.0391 µM. CC(C)(C#N)COc1cnc(OCC#N)cc1-c1ccn2nc(NC(=O)C3CC3)cc2c1 [Example 724, N-[5-[2-(cyanomethoxy)-5-(2-cyano-2-methyl-propoxy)-4-pyridyl]pyrazolo[1,5-a]pyridin-2-yl]cyclopropanecarboxamide] gave an IC50 of 0.0155 µM. Cc1cc(-c2ccn3nc(Nc4cc(C)nc(C)n4)cc3c2)c(OCCN)cn1 [Example 557, 5-[5-(2-aminoethoxy)-2-methyl-4-pyridyl]-N-(2,6-dimethylpyrimidin-4-yl)pyrazolo[1,5-a]pyridin-2-amine] was tested, and the IC50 was 0.0494 µM. With Cc1cnc(Nc2cc3cc(-c4cc(C)ncc4OC[C@@]45CN[C@@H](CO4)C5)ccn3n2)cn1 [Example 257, 5-[2-methyl-5-[[(1R,4R)-5-oxa-2-azabicyclo[2.2.1]heptan-4-yl]methoxy]-4-pyridyl]-N-(5-methylpyrazin-2-yl)pyrazolo[1,5-a]pyridin-2-amine] the IC50 was 0.00446 µM. CNc1nc(C)cc(Nc2cc3cc(-c4cc(C)ncc4O[C@H]4CC[C@H](O)CC4)ccn3n2)n1 [Example 227, (1r,4r)-4-((6-methyl-4-(2-((6-methyl-2-(methylamino)pyrimidin-4-yl)amino)pyrazolo[1,5-a]pyridin-5-yl)pyridin-3-yl)oxy)cyclohexan-1-ol] was tested, and the IC50 was under 0.000847 µM. For Cc1cc(Nc2cc3cc(-c4cc(OCC#N)ncc4O[C@H]4CC[C@H](O)CC4)ccn3n2)nc(C)n1 [Example 690, 2-[[4-[2-[(2,6-dimethylpyrimidin-4-yl)amino]pyrazolo[1,5-a]pyridin-5-yl]-5-(4-hydroxycyclohexoxy)-2-pyridyl]oxy]acetonitrile], the IC50 was 0.00685 µM. CNC(=O)c1cc(C)nc(Nc2cc3cc(-c4cc(OC(F)F)ncc4OCC(C)(C)C#N)ccn3n2)c1 [Example 715, 2-[[5-[5-(2-cyano-2-methyl-propoxy)-2-(difluoromethoxy)-4-pyridyl]pyrazolo[1,5-a]pyridin-2-yl]amino]-N,6-dimethyl-pyridine-4-carboxamide] gave an IC50 of 0.011 µM.
